Source: patent US20090227620A1, “ANTI-INFLAMMATORY COMPOUNDS” (priority 2005, published 2009)

Experiments:
[1] = test system: irritant contact dermatitis elicited with tetradecanoylphorbol-13-acetate (TPA) on ears of mice; experiment: Anti-Inflammatory Test System (TPA-elicited irritant contact dermatitis, mouse ear); assay type: in vivo, strain NMRI; settings: for anti-inflammatory activity (in words): mouse, in vivo; for inhibition in % (auricular weight, inflammatory swelling): topical 10 μl, 30 min before TPA, read 6 hours after
Method: The test sites on the inner surface of the right external ears of mice, e.g. strain NMRI, (8 per group) are treated with 10 μl of the dissolved test compound or with the vehicle (a 4:4:2 mixture of ethanol/acetone/dimethylacetamide) alone. The test compounds are applied at concentrations shown in the TEST RESULT TABLE. Thirty minutes after the treatment irritant contact dermatitis is elicited at the treated auricular sites with 10 μl 0.005% tetradecanoylphorbol-13-acetate (TPA). Skin inflammation is assessed 6 hours after the elicitation by determination of the auricular weights, as a measure of inflammatory swelling. The animals are killed and both ears are cut off and weighed. Inhibitory activity of test compounds is calculated from differences in right and left ears (internal controls) in mice treated with the test compounds compared with animals treated with the vehicle only. Results obtained are as set out in TEST RESULT TABLE below: In the TEST RESULT TABLE the concentrations of the compounds (in bold) used are indicated in micromol/litre. The values given in the TEST RESULT TABLE (in regular letters) are the inhibition in % determined according to the ANTI-INFLAMMATORY TEST SYSTEM used.

[2] = target: T1, purified human steroid sulfatase (Homo sapiens, UniProt P08842); experiment: Assay of Human Steroid Sulfatase (4-methylumbelliferyl sulfate cleavage, fluorescence); settings: reference compound, determined in parallel to test compounds
T1 sequence (P08842 22-583): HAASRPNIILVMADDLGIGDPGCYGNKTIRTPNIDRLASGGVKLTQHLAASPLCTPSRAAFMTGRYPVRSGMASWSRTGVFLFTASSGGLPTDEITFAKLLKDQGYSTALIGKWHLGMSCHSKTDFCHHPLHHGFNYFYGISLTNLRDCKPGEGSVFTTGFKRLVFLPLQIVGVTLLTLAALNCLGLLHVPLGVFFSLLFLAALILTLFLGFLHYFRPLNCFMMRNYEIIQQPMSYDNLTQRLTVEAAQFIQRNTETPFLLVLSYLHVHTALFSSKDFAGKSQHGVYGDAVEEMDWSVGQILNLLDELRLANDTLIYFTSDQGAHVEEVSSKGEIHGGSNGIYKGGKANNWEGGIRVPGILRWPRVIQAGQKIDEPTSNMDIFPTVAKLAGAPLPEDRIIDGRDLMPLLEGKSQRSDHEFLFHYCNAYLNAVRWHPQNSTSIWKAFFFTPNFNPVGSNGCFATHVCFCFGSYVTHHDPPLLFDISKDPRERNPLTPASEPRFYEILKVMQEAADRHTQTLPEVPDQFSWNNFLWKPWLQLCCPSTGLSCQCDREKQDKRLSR
Method: Human placenta is obtained freshly after delivery and stripped of membranes and connective tissues. For storage, the material is frozen at −70° C. After thawing, all further steps are carried out at 4° C., while pH values are adjusted at 20° C. 400 g of the tissue is homogenized in 1.2 l of buffer A (50 mM Tris-HCl, pH 7.4, 0.25 M sucrose). The homogenate obtained is centrifuged at 10,000×g for 45 minutes. The supernatant is set aside and the pellet obtained is re-homogenized in 500 ml of buffer A. After centrifugation, the two supernatants obtained are combined and subjected to ultracentrifugation (100,000×g, 1 hour). The pellet obtained is resuspended in buffer A and centrifugation is repeated. The pellet obtained is suspended in 50 ml of 50 mM Tris-HCl, pH 7.4 and stored at −20° C. until further work-up. After thawing, microsomes are collected by ultracentrifugation (as described above) and are suspended in 50 ml of buffer B (10 mM Tris-HCl, pH 7.0, 1 mM EDTA, 2 mM 2-mercaptoethanol, 1% Triton X-100, 0.1% aprotinin). After 1 hour on ice with gentle agitation, the suspension is centrifuged (100,000×g, 1 hour). The supernatant containing the enzyme activity is collected and the pH is adjusted to 8.0 with 1 M Tris. […]
Plates are incubated at 37° C. for 1 hour. […] Fluorescence intensity is determined in a Titertek Fluoroskan II instrument with λex=355 nm and λem=460 nm. […]

[3] = first value, column head printed 0 micromol/litre (alignment unclear)
[4] = second value, column head printed 0.1 micromol/litre (alignment unclear)
[5] = third value, column head printed 0.3 micromol/litre (alignment unclear)

SMILES | anti-inflammatory activity (in words) [1] | inhibition in % (auricular weight, inflammatory swelling) [1, 3] [%] | inhibition in % (auricular weight, inflammatory swelling) [1, 4] [%] | inhibition in % (auricular weight, inflammatory swelling) [1, 5] [%] | melting point [°C] | IC50 [2] [µM]
CC(C)(C)OC(=O)N1CC2CCCCC(C1)C2C(=O)NS(=O)(=O)c1cc(C(F)(F)F)cc(C(F)(F)F)c1 (stereo not shown) [Example 217, 10-(3,5-bis-trifluoromethyl-benzenesulfonylaminocarbonyl)-8-aza-bicyclo[4.3.1]decane-8-carboxylic acid tert-butyl ester] | anti-inflammatory activity | 20 | 36 | 45 |  | 
CC(C)(C)OC(=O)N1CC2CCCCC(C1)C2C(=O)NS(=O)(=O)c1cc(C(F)(F)F)cc(C(F)(F)F)c1 (stereo not shown) [Example 218] | anti-inflammatory activity | 20 | 36 | 45 |  | 
NC(=O)c1ccc(C(F)(F)F)cc1N1CCC(CS(=O)(=O)NC(=O)c2cc(C(F)(F)F)cc(C(F)(F)F)c2)CC1 [Example 379] |  |  |  |  | 268 to 273 | 
C[C@]12CC[C@@H]3c4ccc(OS(N)(=O)=O)cc4CC[C@H]3[C@@H]1CCC2=O [estrone sulfamate, estrone 3-O-sulfamate] |  |  |  |  |  | ~0.06
